pIC50: −log10 of the molar value. ≈ marks a conversion by molar mass, not a printed value.
Legend:
Vero cells = assay: Half toxic concentration in the anti-herpes screening; type: cell-based, African green monkey
Method: Vero cells (kidney cells of African green monkey) are used as viral hosts to test the inhibition degree of the samples to cytopathic effects of the Vero cell caused by herpes virus type I and type II. 2. Sample treatment: the sample is dissolved in DMSO at an appropriate concentration before use, and diluted with the culture medium 3 times at a total of 8 dilutions for test. 4.

[1] = system: human cervical cancer cell line (HeLa); assay: MTT in vitro tumor cell inhibition; type: cell-based; details: 3 days
Excerpt: (§1) An effective amount of the above compounds and/or the compositions containing the same used as an active ingredient have an effect on inhibiting the tumor cells. The present invention detects the inhibitory effect of the hydroxy-substituted benzophenone compounds on the proliferation of the in vitro cultured human tumor cells by the methylthiazolyl tetrazolium method.
(§2) The method is used to detect cell viability. […] Particles can be dissolved by dimethyl sulfoxide (DMSO) isopropyl alcohol or 10% acidified SDS (sodium dodecyl sulfate), and a microplate reader is used to measure the OD value at A570 wavelength, which indirectly reflects the number of live cells. The method is used for detection of the cytokines bioactivity, as well as anti-tumor drugs and tumor radiosensitivity and cytotoxicity test, and has the characteristics of being simple, fast, economical, sensitive and accurate and having good reproducibility and no need to use radionuclides. This method has been widely used in screening preclinical anticancer drugs and detecting the drug sensitivity of fresh tumor cells. The method is as below:
(§3) (1) The tumor cell suspension prepared by 0.25% of trypsin digestion and adjusted to a cell concentration of 10^5/ml with RPMI1640 containing 10% fetal calf serum is added to a 96-well plate with 100 μl for each well, cultured 24 hours, and then different dosages of drugs are added with 100 μl/well, for which, the negative control groups, positive control groups and withering wells are set, and 4 parallel wells are set for each group.
(§4) (2) They are continually cultured in incubator containing 5% of CO2 at 37° C. for 24 to 48 hours. MTT solution (5 g/L) is added to each well before the termination of the experiment. The OD value at A570 nm is detected by microplate reader. The OD value at A570 of the negative group without the addition of drugs is taken as a control. The cell survival rate and cell inhibition rate of drugs are calculated according to the following formula: Cell survival rate=(OD value of test group/OD value of control group)×100% Cell inhibition rate (%)=(OD value of the control group−OD value of the test group/(OD value of the control group−OD value of the blank group)
(§5) 1. Tumor cell lines: human glioma cell line (U251), human colon cancer cell line (LOVO), human hepatoma cell line (HepG2), human lung cancer cell line (PC84045), human endometrial carcinoma cell line (JEC), human renal carcinoma (GRC), human gastric cancer cell line (MCG804), human cervical cancer cell line (HeLa), human hepatocellular carcinoma cell line (BEL-7402) and human umbilical vein endothelial cell line (ECV304) purchased from Animal Experimental Center of Zhongshan Medical College, and preserved by the present laboratory.
(§6) The tumor cell lines are cultured in RPMI-1640 medium containing 15% of the newborn bovine serum in a conventional manner, placed in the humidification incubator containing 5% of CO2 for being cultured at 37° C., and are observed for growth by an inverted microscope. A subculture is conducted every about 3-5 days, the cells in logarithmic growth phase are adopted to be digested with 0.25% of trypsin, and the serum-free RPMI-1640 medium is used for culturing the cell suspension; the blood counting plate makes counting, the trypan blue exclusion tests the cell activity, and the cell viability>95% is used for formal tests.
(§7) Liquid preparation: the compounds are labeled with the codes respectively, DMSO is used to dissolve each compound, the bacterial filter is used to remove bacteria, and each compound is prepared into 10^−4 g/ml, 10^−5 g/ml, 10^−6 g/ml and preserved at 4° C. for use. […]

[2] = system: human gastric cancer cell line (MCG804); assay: MTT in vitro tumor cell inhibition; type: cell-based; details: 3 days
Excerpt: as §1, §2, §3, §4, §5, §6, §7

[3] = system: human glioma cell line (U251); assay: MTT in vitro tumor cell inhibition; type: cell-based; details: 3 days; for Inhibitory rate, sensitivity class: U251, 10^−6 g/ml
Excerpt: as §1, §2, §3, §4, §5, §6, §7

HIV-1 integrase = molecular target: T1, HIV-1 integrase (Human immunodeficiency virus type 1 group M subtype B, UniProt P04585); assay: Test of sample inhibition to HIV-1 integrase (ELISA, strand transfer); type: biochemical
T1 construct: purified HIV-1 integrase is added to donor substrates coated 96-well plate; made in house
Method: The half-inhibitory concentration IC50 for 3′ excision of the substrate and the strand transfer is in the range of 88.92-10.20 μg/ml, in which the best inhibitory activity of the compound is higher than that of the monomer compound of hydroxybenzoic acid. The mechanism of the HIV-1 integrase is a two-step reaction: 1) 3′ Processing: the integrase binds to the specific sequences of the long terminal repeat region (LTR) of the proviral DNA to form a stable complex, then the endonucleotides of 3′ end of nucleoside is processed, and the GT dinucleotide of the sequence . . . […] Thus, the activity of the integrase inhibitor is embodied in inhibiting the excision of the 3′end of the viral DNA or the strand transfer, and is represented by a half-inhibitory concentration IC50.
In vitro integrase test, 30 synthetic oligonucleotides are used as donor substrates, 20 synthetic oligonucleotides are used as target substrates. Purified HIV-1 integrase is added to donor substrates coated 96-well plate, ELISA reaction is performed, the product of the strand transfer of target DNA is detected, color development is conducted by biotin-labeled alkaline phosphatase system, and the microplate reader is used to measure the OD value.
First, inhibitors of the enzyme may be screened by adding a sample to the reaction system. Before use, the sample is prepared with DMSO to an appropriate concentration, and then is diluted 5 times at 4 dilutions. The sample after dilution is added into the donor substrate coated 96-well plate, and then added to the reaction Buffer containing the genetically engineered target enzyme and the biotin-target substrate, incubated under optimal reaction conditions, and colored by biotin-labeled alkaline phosphatase system, and the OD value for absorbance value at 405 nm is measured.
30 synthetic oligonucleotides are used as donor substrates, 20 synthetic oligonucleotides are used as target substrates, purified HIV-1 integrase is added to donor substrates coated 96-well plate, ELISA reaction is performed, the product of the strand transfer of target DNA is detected, color development is conducted by biotin-labeled alkaline phosphatase system, and the OD value is measured by a microplate reader. The addition of samples to the reaction system can be used to screen inhibitors for the enzyme.
1. HIV-1 IN: it is extracted and saved by Chinese National New Drug Screening Center and Institute of Pharmaceutical Biotechnology under Chinese Academy of Medical Sciences.
2. Sample Treatment: 10 samples A1-A10 dissolved into DMSO prior to use are prepared into suitable concentrations, and then diluted 5 times at 4 dilutions. Donor substrate and target substrate are from Shanghai Biochemical Synthesis.
3. Method for Test: the samples after dilution are added into the donor substrate coated 96-well plate, then added to the reaction Buffer containing the genetically engineered target enzyme and the biotin-target substrate, incubated under optimal reaction conditions, and colored by biotin-labeled alkaline phosphatase system, and the OD value for absorbance value at 405 nm is measured.

SMILES | TC50 half toxic concentration (Vero cells) | Inhibitory rate % ([1]; 10^−4 g/ml) | Inhibitory rate, sensitivity class ([1]; 10^−5 g/ml) | Inhibitory rate, sensitivity class ([1]; 10^−6 g/ml) | Inhibitory rate % ([2]; MCG804, 10^−4 g/ml) | Inhibitory rate % ([2]; MCG804, 10^−5 g/ml) | Inhibitory rate, sensitivity class ([2]; MCG804, 10^−6 g/ml) | Inhibitory rate % ([3]; U251, 10^−4 g/ml) | Inhibitory rate % ([3]; U251, 10^−5 g/ml) | Inhibitory rate, sensitivity class [3] | pIC50 (HIV-1 integrase) | Inhibitory rate % ([1]; 10^−5 g/ml) | Inhibitory rate, sensitivity class ([2]; MCG804, 10^−5 g/ml)
O=C(c1ccc(O)c(O)c1O)c1ccc(O)c(O)c1O [2,3,4,2′,3′,4′-hexahydroxybenzophenone] | 12.35 µg/mL (≈ 44.4 µM) | 61.12% | insensitive (<30% means insensitive) | insensitive (<30% means insensitive) | 80.93% | 30.12% | insensitive (<30% means insensitive) | 83.26% | 30.87% | insensitive (<30% means insensitive) | 4.48 |  | 
O=C(c1ccccc1)c1ccc(O)c(O)c1O [2,3,4-trihydroxybenzophenone] | 53.42 µg/mL (≈ 232 µM) | 89.81% |  | insensitive (<30% means insensitive) | 87.14% | 62.75% | insensitive (<30% means insensitive) | 85.42% | 43.57% | insensitive (<30% means insensitive) | 4.28 | 34.53% | 
O=C(c1ccc(O)cc1O)c1ccc(O)cc1O [2,4,2′,4′-tetrahydroxybenzophenone] | 111.11 µg/mL (≈ 451 µM) | 31.05% | insensitive (<30% means insensitive) | insensitive (<30% means insensitive) | 38.95% |  | insensitive (<30% means insensitive) |  |  |  | 4.34 |  | insensitive (<30% means insensitive)
O=C(c1cc(O)c(O)cc1O)c1ccc(O)c(O)c1O | 86.23 µg/mL (≈ 310 µM) | 60.92% | insensitive (<30% means insensitive) | insensitive (<30% means insensitive) | 83.48% | 72.89% | insensitive (<30% means insensitive) | 68.82% | 31.35% | insensitive (<30% means insensitive) | 4.42 |  | 

Source: US10716769B2 (GUANGZHOU JTREAT BIOSCI. LTD., priority 2015, dated 2020)
